Patent publication US20070003525A1, “Hydrogel compositions comprising nucleus pulposus tissue” (priority 2003, published 2007)

Columns and labels:
Format in all cases: cell-based
[1] = system: Sheep nucleus chondrocytes; assay: MTT cytotoxicity of the photo-initiating system
Experimental: Sheep nucleus chondrocytes were seeded in a 12-well plate at 20,000 cells/well and incubated with TCM. After allowing cells to adhere for over 48 hours, spent media was replaced with TCM containing 0 or 1000 ppm Irgacure 2959. SNCs were then exposed to long wave ultraviolet light at 365 nm wavelength for different lengths of time, followed by incubation at 37° C. MTT assay was performed at 1, 5, and 24 hours post UV exposure to assess viability of cells. The principle of the assay is similar to the MTS assay mentioned before, except that a different tetrazolium compound is used in this method.

[2] = system: Sheep nucleus cells (SNCs)
Experimental: The monomer solution was poured into molds and photo-polymerized using long-wave ultraviolet light at 365 nm wavelength. Polymerized hydrogels were placed into tissue culture inserts which were then placed above seeded SNCs. Cytotoxicity of unpolymerized matrix was also determined, by including inserts containing unpolymerized monomer solution. SNC seeded wells containing empty inserts served as controls. SNCs and inserts were completely immersed in TCM. […] The MTS assay measures viability of cells by a calorimetric method, wherein the MTS tetrazolium compound is bio reduced by cells into a colored formazan product which is soluble in TCM. The conversion is accomplished by dehydrogenase enzymes present in metabolically active cells.

[3] = system: sheep intervertebral disc nucleus pulposus cells; assay: Alcian blue assay of proteoglycan synthesis, sheep cells; conditions: 10 ng/ml
Experimental: Human intervertebral disc cells from Example 9 were seeded and grown in 24 well plates in TCM in the presence or absence of exogenous growth factors. At various time points, TCM was aspirated out from the wells and the wells washed 3 times with PBS. The cells were then fixed with 4% paraformaldehyde (pH 7.4) for 10 min. The fixed cells were washed 2 times with PBS and then stained overnight with 0.5% Alcian blue in 0.1N hydrochloric acid (pH 1.5). After overnight staining, excess stain was rinsed out with 3 rinses of PBS. The remaining Alcian blue stain (bound to proteoglycans) was dissolved overnight into 6 M guanidine hydrochloride and the absorbance at 630 nm was measured using a spectrophotometer, providing an indication of the induction of matrix production by exogenous growth factors in human nucleus pulposus cells. […]
Transforming growth factor-β1 (TGF-β1) and a mixture of bone-derived protein growth factors (BP) produced according to U.S. Pat. Nos. 5,290,763, 5,371,191 and 5,563,124, were tested for their effects on stimulation of proteoglycan synthesis in ovine nucleus pulposus cells. […] At these time points, the cells were fixed and the amount of proteoglycan synthesis was measured by the Alcian blue assay as described in Example 10.

[4] = system: baboon intervertebral disc nucleus pulposus cells; assay: Alcian blue assay of proteoglycan synthesis, baboon cells; conditions: 8 days, 10 ng/ml
Experimental: (§1) Human intervertebral disc cells from Example 9 were seeded and grown in 24 well plates in TCM in the presence or absence of exogenous growth factors. At various time points, TCM was aspirated out from the wells and the wells washed 3 times with PBS. The cells were then fixed with 4% paraformaldehyde (pH 7.4) for 10 min. The fixed cells were washed 2 times with PBS and then stained overnight with 0.5% Alcian blue in 0.1N hydrochloric acid (pH 1.5). After overnight staining, excess stain was rinsed out with 3 rinses of PBS. The remaining Alcian blue stain (bound to proteoglycans) was dissolved overnight into 6 M guanidine hydrochloride and the absorbance at 630 nm was measured using a spectrophotometer, providing an indication of the induction of matrix production by exogenous growth factors in human nucleus pulposus cells.
The foregoing procedure was also applied to sheep and baboon intervertebral nucleus pulposus cells from Example 9 to obtain an indication of the induction of matrix production by exogenous growth factors in sheep and baboon nucleus pulposus cells.
TGF-β1 and BP were tested for their effects on stimulation of proteoglycan synthesis in baboon nucleus cells. […] The cells were fixed after 4 and 8 days of continuous exposure to growth factors, and proteoglycan synthesis was detected by the Alcian blue assay as described in Example 10.

[5] = system: sheep intervertebral disc nucleus pulposus cells; assay: ELISA of Type II collagen and chondroitin-6-sulfate production; conditions: 7 days, 10 ng/ml
Experimental: To detect specific antigenic epitopes in the synthesized matrix, sheep intervertebral nucleus pulposus cells from Example 9, seeded and grown in monolayer, were fixed in 2% glutaraldehyde for 1 hour at room temperature. The fixed cells were washed 3 times with TBS for 5 min. each. To block non-specific antibody binding, the cells were incubated in a solution of Tris buffered saline (TBS) containing 1 mM ethylene-diamine-tetraacetic acid (EDTA), 0.05% Tween-20™, and 0.25% bovine serum albumin for 1 hour. The blocking step was followed by 3 washes with TBS for 5 min. each. The cells were incubated with the primary antibody at room temperature for 2.5 hours, and the excess primary antibody was removed by 3 washes with TBS for 5 min. each. A second incubation with blocking buffer was performed for 10 min., followed by 3 washes with TBS. […] The bound primary and secondary antibodies were detected by addition of an enzyme-specific substrate which produced a colored reaction. The colorimetric measurement was performed using a spectrophotometer, providing a quantitative measure of the presence of the bound antibodies. […]
After incubation with growth factors for 7 days, cell cultures were fixed in 2% glutaraldehyde and the quantity of Type II collagen and chondroitin-6-sulfate produced in the cell cultures was detected by ELISA according to the procedure described in Example 11. […]

[6] = system: human intervertebral disc nucleus pulposus cells; assay: Alcian blue assay of proteoglycan synthesis, human cells; conditions: 10 ng/ml
Experimental: as §1
TGF-β1 and BP were tested for their effects on stimulation of proteoglycan synthesis in human nucleus cells. Human intervertebral disc nucleus pulposus cells obtained from Disc L5-S1 of a patient were cultured as described in Examples 8 and 9 and seeded into 24-well plates. After the cells adhered to the well surface, multiple dilutions of different growth factors were added. The concentrations of growth factors tested were 10 ng/ml TGF-β1, and 10 and 20 μg/ml of BP. The dilutions were prepared in TCM. The cells were fixed after 5 and 8 days of continuous exposure to growth factors and proteoglycans synthesized were detected by the Alcian blue assay as described in Example 10.
A second experiment to test the effects of TGF-β1 and BP on proteoglycan synthesis was performed on a different human patient from that described in Example 14. Human intervertebral disc cells obtained from another patient were cultured as described in Examples 8 and 9 and seeded into 24 well plates. Growth factors were added after the cells were allowed to adhere overnight. […] After 6 and 9 days the cells were fixed and the amount of proteoglycans synthesized was measured by the Alcian blue assay as described in Example 10.

| Compound | cytotoxicity (MTT) ([1]; 1000 ppm in TCM, by itself (no free radical production), FIG. 29: 24 hours post-UV) | cell death by free radicals from UV light with Irgacure 2959 (MTT) ([1]; 1000 ppm plus 365 nm UV for different lengths of time) | cytotoxicity (MTS, absorbance at 570 nm) [2] | increase in proteoglycan synthesis above 0.5% serum control ([3]; 7 day) | increase in proteoglycan synthesis above 0.5% serum control ([3]; 10 day) [%] | increase in proteoglycan synthesis over the control [4] [%] | increased production of Type II collagen over controls [5] [%] | increased production of chondroitin-6-sulfate over controls [5] [%] | increase in Alcian blue staining over the control ([6]; Example 14 patient, 8 days) [%] | more proteoglycans than control ([6]; Example 15 patient, 6 days) [%] | increased proteoglycan production over controls ([6]; Example 15 patient, 9 days) [%] |
| --- | --- | --- | --- | --- | --- | --- | --- | --- | --- | --- | --- |
| CC(C)(O)C(=O)c1ccc(OCCO)cc1 [Irgacure 2959] | not significantly cytotoxic | significant only at 5 and 10 min of UV exposure | cytocompatible |  |  |  |  |  |  |  |  |
| C=CN1CCCCCC1=O [vinyl caprolactam] |  |  | cytocompatible |  |  |  |  |  |  |  |  |
| Transforming growth factor-β1 [TGF-β1] |  |  |  | not significant | 52 | 21 | 115 | 800 | 42 | 54 | 74 |
